The source of these data is patent US20120315283A1, “METHODS OF PROMOTING TISSUE GROWTH AND TISSUE REGENERATION” (DANA-FARBER CANCER INSTITUTE, INC., priority 2010, published 2012).

Assay [1] deals with LLC tumor cells. The assay is described as follows: Tumor cell (LLC) migration. Format: cell-based, mouse. The note with it: 14,15-EEZE.
In assay [2] the test system is Lewis lung carcinoma (LLC). The assay is described as follows: Spontaneous LLC metastasis model (primary tumor resection). It counts as in vivo, mouse. Conditions: for 14,15-EET-induced spontaneous LLC (lung) metastasis: EET antagonist 0.21 mg/mouse co-administered with 14,15-EET 15 μg/kg/day following LLC resection, day 12; for spontaneous LLC liver, kidney and lymph node metastasis / spontaneous LLC lung metastasis: after LLC resection, 12 days, t-AUCB and TUPS 10 mg/kg/day; for spontaneous LLC liver, kidney and lymph node metastasis: 14,15-EET 15 μg/kg/day, vehicle-treated mice do not develop liver metastasis; for spontaneous LLC lung metastasis: 14,15-EET and 14,15-DHET 15 μg/kg/day. An excerpt: The role of non-cell autonomous effects of endothelial-derived EETs in tumor metastasis was unknown.

Assay [3] has as its system Lewis lung carcinoma (LLC). The assay is described as follows: Primary LLC tumor growth. Conditions: for primary LLC tumor growth: systemic, 14,15-EET 15 μg/kg/day minipump, t-AUCB in LLC-GFP tumors, 13 days of treatment, 14,15-EEZE 0.21 mg/mouse, established tumors. It counts as in vivo, mouse.
In assay [4] the test system is endothelial cells. The assay is described as follows: Endothelial cell migration. Format: cell-based.
For assay [5], the system named is B16F10 melanoma. Put plainly: Spontaneous B16F10 metastasis after primary tumor resection. It counts as in vivo, mouse. The note with it: 21 days of treatment post B16F10 resection, 10 mg/kg/day.
Assay [6] deals with mice. The assay is described as follows: Liver regeneration following partial hepatectomy. It counts as in vivo, mouse. The note with it: day 4 following partial hepatectomy, 14,15-EET 15 μg/kg/day via minipump, TUPS 10 mg/kg/day; for liver regeneration: vs vehicle/control; for increase in liver regeneration (liver/body weight ratio): vs vehicle. The text has this: There were no significant differences in liver/body weight ratio at baseline or following sham operation (FIG. 6D). […] Endothelial cell proliferation was increased in the Tie2-CYP2C8-Tr mice when compared to WT mice (FIG. 6D).

For assay [7], the system named is mice. Put plainly: Wound healing (ear punch wound assay). The note with it: systemic TUPS 10 mg/kg/day, day 4, vs vehicle. It counts as in vivo, mouse. An excerpt: In one embodiment, a full-thickness wound is effected by removing a section of skin (e.g., 1.5 mm diameter) from the dorsal surface (e.g., back) of an anesthetized animal by e.g., surgical incision. If so desired, the section of skin to be wounded can be pre-treated with a candidate pro-angiogenic factor prior to wound induction by e.g., subcutaneous injection. Alternatively, the wound can be treated using a candidate pro-angiogenic factor coincident with or immediately following wounding using methods known to one of skill in the art. The size, area, rate of healing, contraction and histology of the wound are assessed at different time points by methods known to those of skill in the art. The wound size of an animal is assessed by measuring the unclosed wound area compared to the original wound area. Wound healing can be expressed as either percent wound closure or percent wound closure rate. Wounds can be harvested at different time points by euthanizing the animal and removing a section of skin surrounding the wound site for histological analysis if so desired.
An ear punch model can also be used to assess rates of angiogenesis or wound healing, in a design similar to that for the full thickness dorsal back skin assay. The model consists of wounding the ear of an animal using a circular punch of a standard size (e.g., 2.25 mm). […]

Assay [8] relates to mice. The assay is described as follows: Lung growth following left pneumonectomy. It counts as in vivo, mouse. Conditions: day 4 post left pneumonectomy, vs vehicle-treated mice, p<0.05. The text has this:
As shown herein, epoxyeicosatrienoic acids (EETs) stimulate angiogenesis, in part via the VEGF signaling network. Since compensated lung growth is dependent on VEGF-induced angiogenesis, it was hypothesized that endothelial cells (ECs) stimulate lung growth via production of EETs. To confirm the effects of CYP2C8 overexpression, EET levels were increased by inhibition of soluble epoxide hydrolase (sEH) following left penumonectomy. […] In contrast, there was no significant change in baseline lung volume/body weight ratio after sham operation.
As shown herein, epoxyeicosatrienoic acids (EETs) stimulate angiogenesis, in part via the VEGF signaling network. Since compensated lung growth is dependent on VEGF-induced angiogenesis, it was hypothesized that endothelial cells (ECs) stimulate lung growth via production of EETs. Transgenic (Tg) mice with EC-specific overexpression of CYP2C8 (Tie2 promoter-driven) were used to study the consequence of increased EETs on lung growth following left pneumonectomy. To confirm the effects of CYP2C8 overexpression, EET levels were increased by inhibition of soluble epoxide hydrolase (sEH). EC-specific overexpression of CYP2C8 promoted contralateral lung growth following unilateral pneumectomy. Lung volume/body weight on day 4 post-pneumonectomy were increased by 23% (p<0.001) in Tg mice compared to WT mice (FIG. 12). […]

Assay [9] relates to mice. Put plainly: Endometriosis (ectopically implanted uterine tissue). Format: in vivo, mouse. The note with it: systemic 14,15-EET 15 μg/kg/day via minipump.
Assay [10] relates to LLC tumor cells. Put plainly: In vitro tumor cell production of VEGF, LLC. Format: cell-based, mouse. The note with it: 14,15-EET.
In assay [11] the test system is B16F10 tumor cells. Put plainly: In vitro tumor cell production of VEGF, B16F10. It counts as cell-based, mouse. The note with it: 14,15-EET.
In assay [12] the test system is VEGF production. Put plainly: β-galactosidase staining of LLC tumors in VEGF-LacZ-Tr mice. Format: in vivo, mouse. Conditions: systemic 14,15-EET 15 μg/kg/day, absent in non-treated size-matched tumors. An excerpt: However, analysis of LLC tumors in VEGF-LacZ-Tr mice in which the LacZ reporter was introduced into the VEGF locus (A. S. Maharaj, M. Saint-Geniez, A. E. Maldonado, P. A. D'Amore, Am J Pathol 168, 639 2006).

Setting [13] is: TSP1 null mice, 14,15-EEZE 0.21 mg/mouse.

Entries after “also recorded” stand apart in the source; their conditions may differ.

Turning to `CCCCCC1OC1CCCCCCC/C=C\CCCC(=O)O` (centres unmarked) [14,15-EEZE], the “migration of LLC tumor cells” value in assay [1] is listed as “no significant effect; also recorded: not tumor cell (LLC) migration”. For the same compound, in [2], the “14,15-EET-induced spontaneous LLC (lung) metastasis” value is “reduced lung metastasis”. The “14,15-EET-induced macroscopic liver and lymph node metastasis” value in assay [2] (EET antagonist co-administered with 14,15-EET following LLC resection) is “prevented macroscopic liver and lymph node metastasis”. Besides, in [2] (LLC resection metastasis model, 14,15-EEZE 0.21 mg/mouse), the survival result is “prolongs survival”. For the same compound, the “plasma VEGF levels” value in assay [2] (spontaneous LLC lung metastasis model, 14,15-EEZE 0.21 mg/mouse) was “reduces plasma VEGF levels”. For the same compound, in assay [3] (setting [13]), the “primary LLC tumor growth in TSP1 null mice” value is given as “does not significantly inhibit primary LLC tumor growth” and the “tumor suppression by the EET antagonist” value worked out at 24%. In addition, the “tumor suppression by the EET antagonist” value in assay [3] (WT mice, 14,15-EEZE 0.21 mg/mouse) is on record as 62%. Besides, the “primary LLC tumor growth” value in assay [3] is “reduced primary LLC growth; also recorded: inhibits primary LLC growth”. Besides, the “endothelial cell migration (VEGF-induced), inhibition” value in [4] (14,15-EEZE, dose-dependent) is “inhibited endothelial migration in a dose-dependent fashion; also recorded: inhibits VEGF-induced endothelial cell”.
`CS(=O)(=O)N1CCC(NC(=O)Nc2ccc(OC(F)(F)F)cc2)CC1` [TUPS, 1-(1-methanesulfonyl-piperidin-4-yl)-3-(4-trifluoromethoxy-phenyl)-urea]: in assay [2], the “spontaneous LLC liver, kidney and lymph node metastasis” value is listed as “induces spontaneous liver metastasis; also recorded: dramatically stimulated; also recorded: increase liver metastasis”; the “spontaneous LLC lung metastasis” value is “dramatically stimulated”. For the same compound, the “spontaneous B16F10 axillary lymph node metastasis” value in assay [5] is listed as “dramatically stimulated; also recorded: increase spontaneous B16F10 axillary lymph node metastasis”. Further, in [6], the liver regeneration result is recorded as “increases liver regeneration” and the “increase in liver regeneration (liver/body weight ratio)” value is recorded as 38%. In addition, the VEGF-mediated endothelial migration entry in [4] (VEGF-mediated) is “stimulate VEGF-mediated endothelial migration”. In addition, the basal endothelial migration result in assay [4] (basal, without VEGF) is given as “no significant effects”. For the same compound, the wound healing entry in assay [7] was “accelerates wound healing; also recorded: significantly accelerated wound healing”. Moreover, the “lung growth/body weight (lung regeneration)” value in assay [8] was “increase in lung regeneration; also recorded: stimulated lung growth/body weight”.
As for `CCCCCC1OC1C/C=C\C/C=C\C/C=C\CCCC(=O)O` (centres unmarked) [14,15-EET], the increase in endometriosis in assay [9] (WT mice, day 6, vs vehicle) is recorded as 254%. Besides, the endometriosis result in assay [9] (day 6, percent of lesions established and area of established lesions) is given as “endometriosis is stimulated”. In addition, in [2] (WT mice, 14,15-EET via osmotic mini-pumps at time of LLC resection, 12 days after resection, vs vehicle), the “increase in the number of surface lung metastases” value stood at 3 fold. In [2], the “spontaneous LLC liver, kidney and lymph node metastasis” value is “induction of liver, kidney and distant lymph node metastasis; also recorded: increases spontaneous LLC lung metastasis and distant femoral lymph node metastasis”; the “spontaneous LLC lung metastasis” value was “increases spontaneous lung and distant femoral lymph node metastasis; also recorded: increases spontaneous LLC lung metastasis”. The “VEGF production by LLC tumor cells in vitro” value in [10] is “no significant effect”. In [3], the “primary LLC tumor growth” value is “significantly accelerated primary LLC tumor growth; also recorded: increases primary LLC tumor growth”. For the same compound, the “VEGF production by B16F10 tumor cells in vitro” value in assay [11] is recorded as “no significant effect”. Also, in assay [6], the liver regeneration result is listed as “stimulates liver regeneration” and the “increase in liver regeneration (liver/body weight ratio)” value is given as 21%. In assay [12], the “β-galactosidase staining (marker of VEGF production) in tumor endothelium and stromal fibroblasts” value was “show β-galactosidase staining; also recorded: stained positively”.
`CCCCCC(O)C(O)C/C=C\C/C=C\C/C=C\CCCC(=O)O` (centres unmarked) [14,15-DHET]: the “spontaneous LLC lung metastasis” value in assay [2] was “has no effect relative to control; also recorded: does not stimulate metastasis”.
With `CCCCCC1OC1CCCCCCCC=CCCCC(=O)NS(C)(=O)=O` (centres unmarked) [14,15-EEZE-mSI], in [2], the “14,15-EET-induced spontaneous LLC (lung) metastasis” value is given as “inhibits lung metastasis induced by 14,15-EET; also recorded: inhibits 14,15-EET- (15 μg/kg/day) induced spontaneous LLC metastasis”.
